Source: US20120172339A1, “ANGIOGENIC RESORCINOL DERIVATIVES” (Northeastern University, priority 2009, published 2012)
Read-outs that look alike come from different tables or passages of the source.

Tests used:
CB1 cannabinoid receptor = CB1 cannabinoid receptor (Homo sapiens, UniProt P21554); assay: CB1 receptor binding affinity
Procedure: (§1) Some disclosed compounds were tested for CB1 and CB2 receptors binding affinity (Table 5). As used herein “binding affinity” is represented by the Ki value. The Ki value is the affinity constant and describes the affinity of the compound for the receptor. […] A detailed description of the methods used to test “binding affinity” of compounds is given in Makriyannis, et al., US 2007, 0135388 and in Papahatjis, et al. J. Med. Chem. (2007) 4048, the content of each of which is hereby incorporated by reference.

CB2 cannabinoid receptor = CB2 cannabinoid receptor (Homo sapiens, UniProt P34972); assay: CB2 receptor binding affinity
Procedure: as §1

CB1-KO-HUVEC cells = assay: MMP (matrix metalloproteinase) activity in CB1-KO-HUVEC; format: cell-based, human; details: FIGS. 7 and 8, read-out: EC50 for induction of MMP activity
Description: For aspects disclosed herein, promotion of angiogenic responses under in vitro and ex vivo conditions as well as increasing in MMP (matrix metalloproteinase) activity, correlates well with the ability of anandamide and its synthetic analog (R)-methanandamide to bind to and modulate the putative “non CB1/non CB2 anandamide receptor”. Thus, the compounds described herein where tested using in vitro angiogenesis assays (cord formation by endothelial cells in extracellular matrix mimicking matrigel), ex vivo angiogenesis assay (sprouting or blood capillary formation under ex vivo conditions) as well as for MMP activity in CB1 receptor knock out human umbilical vein endothelial cells (HUVEC) (CB1-KO-HUVEC).
Some disclosed compounds were tested using in vitro angiogenesis assays (cord formation by endothelial cells in extracellular matrix mimicking matrigel, Table 4), ex vivo angiogenesis assay (sprouting or blood capillary formation under ex vivo conditions, Table 4) as well as for MMP (matrix metalloproteinase) activity in CB1 receptor knock out human umbilical vein endothelial cells (HUVEC) (CB1-KO-HUVEC, Figures A and B). Stimulation of angiogenic responses under in vitro and ex vivo conditions as well as increasing in MMP activity, correlates well with the ability of the compound to bind to and modulate the putative “non CB1/non CB2 anandamide receptor”. […] A detailed description of the angiogenesis and MMP activity assays is given in Mukhopadhyay (US 2007, 0244200, and Balas, et al., J. Med. Chem. (2009) ASAP the content of each of which is hereby incorporated by reference.

Chain of CB2 cannabinoid receptor (P34972 whole entry): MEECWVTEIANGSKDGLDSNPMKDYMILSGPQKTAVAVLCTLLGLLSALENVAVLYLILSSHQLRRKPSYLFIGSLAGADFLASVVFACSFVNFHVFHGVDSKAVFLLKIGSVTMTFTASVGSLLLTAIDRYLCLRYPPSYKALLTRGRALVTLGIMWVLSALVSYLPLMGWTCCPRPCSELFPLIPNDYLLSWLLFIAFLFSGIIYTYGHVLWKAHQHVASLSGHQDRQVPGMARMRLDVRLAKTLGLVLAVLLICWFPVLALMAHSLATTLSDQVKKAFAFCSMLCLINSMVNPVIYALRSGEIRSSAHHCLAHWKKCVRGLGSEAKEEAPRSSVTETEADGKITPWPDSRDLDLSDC
Chain of CB1 cannabinoid receptor (P21554 whole entry): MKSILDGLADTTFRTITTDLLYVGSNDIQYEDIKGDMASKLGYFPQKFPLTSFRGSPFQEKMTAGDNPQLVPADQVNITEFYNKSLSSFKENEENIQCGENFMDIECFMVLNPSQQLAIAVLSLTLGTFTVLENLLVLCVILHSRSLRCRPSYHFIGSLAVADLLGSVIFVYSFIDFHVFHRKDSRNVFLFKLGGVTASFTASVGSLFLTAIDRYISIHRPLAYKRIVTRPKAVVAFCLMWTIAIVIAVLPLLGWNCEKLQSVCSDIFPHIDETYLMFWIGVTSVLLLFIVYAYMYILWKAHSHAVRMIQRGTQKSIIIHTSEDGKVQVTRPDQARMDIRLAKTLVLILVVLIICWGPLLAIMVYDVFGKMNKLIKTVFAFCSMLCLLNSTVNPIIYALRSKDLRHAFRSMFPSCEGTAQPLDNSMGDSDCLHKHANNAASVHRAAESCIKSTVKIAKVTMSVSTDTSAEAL

C=C(C)[C@@H]1CCC(C)=C[C@H]1c1c(O)cc(O)cc1CCCCBr (relative stereo) [Compound 4.16]
Ki (CB1 cannabinoid receptor; read-out: CB1 Receptor Ki): 12.5 µM
Ki (CB2 cannabinoid receptor; read-out: CB2 Receptor Ki): 5.73 µM

C=C(C)[C@@H]1CCC(C)=C[C@H]1c1c(O)cc(CC#N)cc1O (relative stereo) [Compound 3.13, (−)-2-[3-3,4-trans-p-Menthadien-(1,8)-yl]-5-(cyanomethyl)resorcinol]
Ki (CB1 cannabinoid receptor; read-out: CB1 Receptor Ki): 1.44 µM
Ki (CB2 cannabinoid receptor; read-out: CB2 Receptor Ki): 4.2 µM

C=C(C)[C@@H]1CCC(C)=C[C@H]1c1c(O)cc(/C=C\CCCCC)cc1O [Compound 3.6, (−)-2-[3-3,4-trans-p-Menthadien-(1,8)-yl]-5-(1,2-cis-hepten-1-yl)resorcinol]
EC50 (CB1-KO-HUVEC cells; Homo sapiens): 0.05 to 0.07 µM

C=C(C)[C@@H]1CCC(C)=C[C@H]1c1c(O)cc(O)cc1CCCCC (relative stereo) [Compound 4.2, (−)-4-[3-3,4-trans-p-Menthadien-(1,8)-yl]-5-pentylresorcinol, reference compound]
Ki (CB1 cannabinoid receptor): 4.78 µM
Ki (CB2 cannabinoid receptor): 9.64 µM

C=C(C)[C@@H]1CCC(C)=C[C@H]1c1c(O)cc(CC(=O)OC)cc1O (relative stereo) [Compound 3.14, (−)-2-[3-3,4-trans-p-Menthadien-(1,8)-yl]-5-(2-methoxy-2-oxoethyl)resorcinol]
Ki (CB1 cannabinoid receptor; read-out: CB1 Receptor Ki): 2.37 µM
Ki (CB2 cannabinoid receptor; read-out: CB2 Receptor Ki): 0.62 µM

C=C(C)[C@@H]1CCC(C)=C[C@H]1c1c(O)cc(CCCCCCC)c([C@@H]2C=C(C)CC[C@H]2C(=C)C)c1O (relative stereo) [Compound 5.3, 2,4-bis-[3-3,4-trans-p-Menthadien-(1,8)-yl]-5-heptylresorcinol]
EC50 (CB1-KO-HUVEC cells; Homo sapiens): 0.05 to 0.07 µM
Ki (CB1 cannabinoid receptor; read-out: CB1 Receptor Ki): > 10 µM
Ki (CB2 cannabinoid receptor; read-out: CB2 Receptor Ki): > 10 µM

C=C(C)[C@@H]1CCC(C)=C[C@H]1c1c(O)cc(O)cc1CC#N
melting point: 131 to 133 °C

C=C(C)[C@@H]1CCC(C)=C[C@H]1c1c(O)cc(CN=[N+]=[N-])cc1O (relative stereo) [Compound 3.15, (−)-2-[3-3,4-trans-p-Menthadien-(1,8)-yl]-5-(azidomethyl)resorcinol]
EC50 (CB1-KO-HUVEC cells; Homo sapiens): 0.05 to 0.07 µM
Ki (CB1 cannabinoid receptor; read-out: CB1 Receptor Ki): 3.56 µM
Ki (CB2 cannabinoid receptor; read-out: CB2 Receptor Ki): 2.03 µM

C=C(C)[C@@H]1CCC(C)=C[C@H]1c1c(O)cc(O)cc1O (relative stereo) [Compound 3.7, (−)-2-[3-3,4-trans-p-Menthadien-(1,8)-yl]-5-hydroxyresorcinol]
Ki (CB1 cannabinoid receptor; read-out: CB1 Receptor Ki): 21.5 µM
Ki (CB2 cannabinoid receptor; read-out: CB2 Receptor Ki): 41.7 µM

C=C(C)[C@@H]1CCC(C)=C[C@H]1c1c(O)cc(O)cc1Br (relative stereo) [Compound 4.10, (−)-4-[3-3,4-trans-p-Menthadien-(1,8)-yl]-5-bromoresorcinol]
Ki (CB1 cannabinoid receptor; read-out: CB1 Receptor Ki): 7.46 µM
Ki (CB2 cannabinoid receptor; read-out: CB2 Receptor Ki): 13.3 µM

CCCCCc1cc(O)c([C@@H]2C=C(C)[C@@H]3C[C@H]2C3(C)C)c(O)c1 [Compound 11.2, (−)-2-[(1S, 4R, 5R)-2,6,6-trimethylbicyclo[3.1.1]hept-2-en-4-yl]-5-pentyl-resorcinol]
Ki (CB1 cannabinoid receptor; read-out: CB1 Receptor Ki): 0.837 µM
Ki (CB2 cannabinoid receptor; read-out: CB2 Receptor Ki): 0.565 µM

C=C(C)[C@@H]1CCC(C)=C[C@H]1c1c(O)cc(O)cc1Cl (relative stereo) [Compound 4.9, (−)-4-[3-3,4-trans-p-Menthadien-(1,8)-yl]-5-chlororesorcinol]
melting point: 101 to 103 °C
Ki (CB1 cannabinoid receptor; read-out: CB1 Receptor Ki): 3.18 µM
Ki (CB2 cannabinoid receptor; read-out: CB2 Receptor Ki): 4.97 µM

C=C(C)[C@@H]1CCC(C)=C[C@H]1c1c(O)cc(O)cc1I (relative stereo) [Compound 4.11, (−)-4-[3-3,4-trans-p-Menthadien-(1,8)-yl]-5-iodoresorcinol]
EC50 (CB1-KO-HUVEC cells; Homo sapiens): 0.05 to 0.07 µM
Ki (CB1 cannabinoid receptor; read-out: CB1 Receptor Ki): 13.1 µM
Ki (CB2 cannabinoid receptor; read-out: CB2 Receptor Ki): 10.5 µM

CCCCCc1cc(O)cc(O)c1[C@@H]1C=C(C)[C@@H]2C[C@H]1C2(C)C [Compound 12.2]
Ki (CB1 cannabinoid receptor; read-out: CB1 Receptor Ki): 10.1 µM
Ki (CB2 cannabinoid receptor; read-out: CB2 Receptor Ki): 19 µM

CCCCCc1cc(O)cc(O)c1[C@H]1C=C(C)[C@H]2C[C@@H]1C2(C)C [Compound 9.2, (+)-4-[(1R, 4S, 5S)-2,6,6-trimethylbicyclo[3.1.1]hept-2-en-4-yl]-5-pentyl-resorcinol]
Ki (CB1 cannabinoid receptor; read-out: CB1 Receptor Ki): 9.25 µM
Ki (CB2 cannabinoid receptor; read-out: CB2 Receptor Ki): 4.94 µM

CCCCC/C=C\C/C=C\C/C=C\C/C=C\CCCC(=O)N[C@H](C)CO [(R)-methanandamide, reference compound]
EC50 (CB1-KO-HUVEC cells): ~0.042 µM

C=C(C)[C@@H]1CCC(C)=C[C@H]1c1c(O)cc(CCCCCCC)cc1O (relative stereo) [Compound 3.3, (−)-2-[3-3,4-trans-p-Menthadien-(1,8)-yl]-5-heptylresorcinol]
Ki (CB1 cannabinoid receptor): 0.651 µM
Ki (CB2 cannabinoid receptor): 1.42 µM

C=C(C)[C@@H]1CCC(C)=C[C@H]1c1c(O)cc(CCCCBr)cc1O (relative stereo) [Compound 3.16, (−)-2-[3-3,4-trans-p-Menthadien-(1,8)-yl]-5-(4-bromobutyl)resorcinol]
Ki (CB1 cannabinoid receptor): 0.192 µM
Ki (CB2 cannabinoid receptor): 0.059 µM

C=C(C)[C@@H]1CCC(C)=C[C@H]1c1c(O)cc(I)cc1O (relative stereo) [Compound 3.11, (−)-2-[3-3,4-trans-p-Menthadien-(1,8)-yl]-5-iodoresorcinol]
melting point: 128 to 130 °C
Ki (CB1 cannabinoid receptor; read-out: CB1 Receptor Ki): 5.13 µM
Ki (CB2 cannabinoid receptor; read-out: CB2 Receptor Ki): 2.19 µM

C=C(C)[C@@H]1CCC(C)=C[C@H]1c1c(O)cc(O)cc1F (relative stereo) [Compound 4.8, (−)-4-[3-3,4-trans-p-Menthadien-(1,8)-yl]-5-flouororesorcinol]
melting point: 105 to 106 °C
Ki (CB1 cannabinoid receptor; read-out: CB1 Receptor Ki): 4.15 µM
Ki (CB2 cannabinoid receptor; read-out: CB2 Receptor Ki): 7.21 µM

CCCCCc1cc(O)c([C@H]2C=C(C)[C@H]3C[C@@H]2C3(C)C)c(O)c1 [Compound 8.2, (+)-2-[(1R, 4S, 5S)-2,6,6-trimethylbicyclo[3.1.1]hept-2-en-4-yl]-5-pentyl-resorcinol]
EC50 (CB1-KO-HUVEC cells; Homo sapiens): 0.05 to 0.07 µM

C=C(C)[C@@H]1CCC(C)=C[C@H]1c1c(O)cc(CBr)cc1O (relative stereo) [Compound 3.12, (−)-2-[3-3,4-trans-p-Menthadien-(1,8)-yl]-5-(bromomethyl)resorcinol]
Ki (CB1 cannabinoid receptor; read-out: CB1 Receptor Ki): 2.2 µM
Ki (CB2 cannabinoid receptor; read-out: CB2 Receptor Ki): 10.8 µM

[2H]C([2H])([2H])CCc1cc(O)cc(O)c1[C@@H]1C=C(C)CC[C@H]1C(=C)C (relative stereo) [Compound 4.5, (−)-4-[3-3,4-trans-p-Menthadien-(1,8)-yl]-5-[3′-(^2H3)-propyl]resorcinol]
Ki (CB1 cannabinoid receptor; read-out: CB1 Receptor Ki): > 20 µM
Ki (CB2 cannabinoid receptor; read-out: CB2 Receptor Ki): 19 µM

C=C(C)[C@@H]1CCC(C)=C[C@H]1c1c(O)cc(F)cc1O (relative stereo) [Compound 3.8, (−)-2-[3-3,4-trans-p-Menthadien-(1,8)-yl]-5-flouororesorcinol]
EC50 (CB1-KO-HUVEC cells; Homo sapiens): 0.05 to 0.07 µM
Ki (CB1 cannabinoid receptor; read-out: CB1 Receptor Ki): 14.6 µM
Ki (CB2 cannabinoid receptor; read-out: CB2 Receptor Ki): 43.4 µM

C=C(C)[C@@H]1CCC(C)=C[C@H]1c1c(C)cc(O)cc1O (relative stereo) [Compound 4.1, (−)-4-[3-3,4-trans-p-Menthadien-(1,8)-yl]-5-methylresorcinol]
Ki (CB1 cannabinoid receptor; read-out: CB1 Receptor Ki): 10 µM
Ki (CB2 cannabinoid receptor; read-out: CB2 Receptor Ki): 31.1 µM

C=C(C)[C@@H]1CCC(C)=C[C@H]1c1c(O)cc(C)cc1O (relative stereo) [Compound 3.1, (−)-2-[3-3,4-trans-p-Menthadien-(1,8)-yl]-5-methylresorcinol]
Ki (CB1 cannabinoid receptor; read-out: CB1 Receptor Ki): 16.7 µM
Ki (CB2 cannabinoid receptor; read-out: CB2 Receptor Ki): 47.7 µM

C=C(C)[C@@H]1CCC(C)=C[C@H]1c1c(O)cc(O)cc1CCCCCCC (relative stereo) [Compound 4.3, (−)-4-[3-3,4-trans-p-Menthadien-(1,8)-yl]-5-heptylresorcinol]
Ki (CB1 cannabinoid receptor): 0.25 µM
Ki (CB2 cannabinoid receptor): 0.398 µM

[2H]C([2H])([2H])CCc1cc(O)c([C@@H]2C=C(C)CC[C@H]2C(=C)C)c(O)c1 (relative stereo) [Compound 3.5, (−)-2-[3-3,4-trans-p-Menthadien-(1,8)-yl]-5-[3′-(^2H3)-propyl]resorcinol]
Ki (CB1 cannabinoid receptor; read-out: CB1 Receptor Ki): 8.39 µM
Ki (CB2 cannabinoid receptor; read-out: CB2 Receptor Ki): 2.58 µM
